Test results as given in patent US10611750B2, “Tetrahydroquinoline compositions as bet bromodomain inhibitors” (FORMA Therapeutics, Inc., priority 2013, dated 2020).
pIC50: −log10 of the molar value.

Experiments:
[1] = target: T1, BRD4 Bromodomain 2 (BRD4 BD2) (Homo sapiens, UniProt O60885); test: AlphaScreen binding assay, BRD4 BD2; settings: His-tagged BRD4 BD2 100 nM, biotinylated H4 (1-21) K5/8/12/16 tetra-acetylated peptide 100 nM, compounds listed under IC50 range headings
T1 construct: 333-460 were cloned, expressed, and purified to homogeneity
How it was run: (§1)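 An AlphaScreen competition format was used with His-BRD4 BD1 or BD2 and biotin-H4 K5/8/12/16-acetyl peptide, each at matched final levels of 50 nM (BD1) or 100 nM (BD2). Incubation in HEPES/NaCl buffer with 0.1% BSA and 0.01% Triton X-100 ran ≥1 h before IC50 determination.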

[2] = target: T2, BRD4 Bromodomain 1 (BRD4 BD1) (Homo sapiens, UniProt O60885); test: AlphaScreen binding assay, BRD4 BD1; settings: His-tagged BRD4 BD1 50 nM, biotinylated H4 (1-21) K5/8/12/16 tetra-acetylated peptide 50 nM, compounds listed under IC50 range headings
T2 construct: 44-168 and BRD4 BD2
How it was run: as §1

[3] = test system: acute myelocytic leukemia (AML) cell line MV4-11; test: Oncology cell growth assay (3-day proliferation, CellTiter-Glo); assay type: cell-based; settings: Homo sapiens, MV4-11, 72 h, MV4-11 cells, 3000 cells/well, compounds listed under IC50 range headings, read-out: MV411 IC50 (gIC50, inhibition of proliferation)
How it was run: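 Luminescence from CellTiter-Glo served as the growth read-out after MV4-11 cells (3000/well) were cultured with compound for 72 hours. Final concentrations spanned 10 to 0.0045 μM in 3-fold steps. gIC50 values were derived by four-parameter logistic fitting relative to DMSO and cell-free controls.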

pIC50 [1]	pIC50 [2]	pIC50 [3]	SMILES
6.30 to 7.30	6.00 to 7.00	> 6.30	CC(=O)N1c2ccc(-c3cnn(C4CC4)c3)c(Oc3nc4ccccc4o3)c2CC[C@@H]1C [I-78, (S)-1-(5-(benzo[d]oxazol-2-yloxy)-6-(1-cyclopropyl-1H-pyrazol-4-yl)-2-methyl-3,4-dihydroquinolin-1(2H)-yl)ethanone]
6.30 to 7.30	6.00 to 7.00	> 6.30	CC(=O)N1c2ccc(-c3cnn(C4CC4)c3)c(Oc3ccc(C#N)nn3)c2CC[C@@H]1C [I-91, (S)-6-(1-acetyl-6-(1-cyclopropyl-1H-pyrazol-4-yl)-2-methyl-1,2,3,4-tetrahydroquinolin-5-yloxy)pyridazine-3-carbonitrile]
6.30 to 7.30	5.00 to 6.00	> 6.30	COC(=O)N1c2ccc(-c3cnn(C4CCNCC4)c3)c(Oc3ncc(F)cn3)c2CC[C@@H]1C [I-533]
6.30 to 7.30	6.00 to 7.00	> 6.30	CC(=O)N1c2ccc(-c3cnn(C4CC4)c3)c(OC3CC3)c2CC[C@@H]1C [I-113, (S)-1-(5-cyclopropoxy-6-(1-cyclopropyl-1H-pyrazol-4-yl)-2-methyl-3,4-dihydroquinolin-1(2H)-yl)ethanone]
6.30 to 7.30	6.00 to 7.00	> 6.30	CC(=O)N1c2ccc(-c3cnn(C4CCNCC4)c3)c(Oc3ncccc3C#N)c2CC[C@@H]1C [I-143, (S)-2-(1-acetyl-2-methyl-6-(1-(piperidin-4-yl)-1H-pyrazol-4-yl)-1,2,3,4-tetrahydroquinolin-5-yloxy)nicotinonitrile]
> 7.30	6.00 to 7.00	> 6.30	COC(=O)N1c2ccc(-c3cnn(C4CNC4)c3)c(Oc3cccc(F)c3C#N)c2CC[C@@H]1C [I-139, (S)-methyl 6-(1-(azetidin-3-yl)-1H-pyrazol-4-yl)-5-(2-cyano-3-fluorophenoxy)-2-methyl-3,4-dihydroquinoline-1(2H)-carboxylate]
6.30 to 7.30	6.00 to 7.00	6.00 to 6.30	COCCOc1c(-c2cnn(C3CC3)c2)ccc2c1CC[C@H](C)N2C(C)=O [I-398]
6.30 to 7.30	5.00 to 6.00	< 6.00	CCCOc1c(-c2ccc(S(C)(=O)=O)cn2)ccc2c1CC[C@H](C)N2C(C)=O [I-114, (S)-1-(2-methyl-6-(5-(methylsulfonyl)pyridin-2-yl)-5-propoxy-3,4-dihydroquinolin-1(2H)-yl)ethanone]
6.30 to 7.30	5.00 to 6.00	6.00 to 6.30	COC(=O)N1c2ccc(-c3cnn(C4CC4)c3)c(Oc3ncc(C4CC4)cn3)c2CC[C@@H]1C [I-573]
6.30 to 7.30	5.00 to 6.00	6.00 to 6.30	CC(=O)N1c2ccc(-c3cnn(C4CC4)c3)c(Oc3ncc4cn[nH]c4n3)c2CC[C@@H]1C [I-82, (S)-1-(5-(1H-pyrazolo[3,4-d]pyrimidin-6-yloxy)-6-(1-cyclopropyl-1H-pyrazol-4-yl)-2-methyl-3,4-dihydroquinolin-1(2H)-yl)ethanone]
> 7.30	6.00 to 7.00	> 6.30	CC(=O)N1c2ccc(-c3cnn(C4CC4)c3)c(Oc3cccc(C)n3)c2CC[C@@H]1C [I-256, (S)-1-(6-(1-cyclopropyl-1H-pyrazol-4-yl)-2-methyl-5-(6-methylpyridin-2-yloxy)-3,4-dihydroquinolin-1 (2H)-yl)ethanone]
6.30 to 7.30	5.00 to 6.00	< 6.00	CCCOc1c(-c2ccc(NS(C)(=O)=O)cn2)ccc2c1CC[C@H](C)N2C(C)=O [I-115, (S)—N-(6-(1-acetyl-2-methyl-5-propoxy-1,2,3,4-tetrahydroquinolin-6-yl)pyridin-3-yl)methanesulfonamide]
6.30 to 7.30	5.00 to 6.00	6.00 to 6.30	COC(=O)N1c2ccc(-c3cnn(C4CC4)c3)c(Oc3ncccc3C(F)(F)F)c2CC[C@@H]1C [I-565]
> 7.30	5.00 to 6.00	> 6.30	CCCOc1c(-c2cnn(CC(C)(C)O)c2)ccc2c1CC[C@H](C)N2C(=O)OC [I-442]
6.30 to 7.30	5.00 to 6.00	< 6.00	COC(=O)N1c2ccc(-c3cnn(CCS(C)(=O)=O)c3)c(Oc3ncc(C)cn3)c2CC[C@@H]1C [I-582]
> 7.30	6.00 to 7.00	> 6.30	COC(=O)N1c2ccc(-c3cnn(C4CCNCC4)c3)c(OCC(C)C)c2CC[C@@H]1C [I-458]
> 7.30	6.00 to 7.00	> 6.30	COC(=O)N1c2ccc(-c3cnn(C4CN(C)C4)c3)c(Oc3ccc(F)cc3)c2CC[C@@H]1C [I-282, Methyl (S)-5-(4-fluorophenoxy)-2-methyl-6-(1-(1-methylazetidin-3-yl)-1H-pyrazol-4-yl)-3,4-dihydroquinoline-1(2H)-carboxylate]
> 7.30	6.00 to 7.00	> 6.30	CCCOc1c(-c2cnn(CC(C)(C)O)c2)ccc2c1CC[C@H](C)N2C(C)=O [I-408]
6.30 to 7.30	5.00 to 6.00	> 6.30	COC(=O)N1c2ccc(-c3cnn(C4CCNCC4)c3)c(Oc3ncccc3C(F)(F)F)c2CC[C@@H]1C [I-527]
> 7.30	6.00 to 7.00	> 6.30	CC(=O)N1c2ccc(-c3cnn(C4CCNCC4)c3)c(Oc3cnccn3)c2CC[C@@H]1C [I-145, (S)-1-(2-methyl-6-(1-(piperidin-4-yl)-1H-pyrazol-4-yl)-5-(pyrazin-2-yloxy)-3,4-dihydroquinolin-1(2H)-yl)ethanone]
> 7.30	6.00 to 7.00	> 6.30	CC(=O)N1c2ccc(-c3cnn(C4CC4)c3)c(Oc3ncc4ccccc4n3)c2CC[C@@H]1C [I-77, (S)-1-(6-(1-cyclopropyl-1H-pyrazol-4-yl)-2-methyl-5-(quinazolin-2-yloxy)-3,4-dihydroquinolin-1(2H)-yl)ethanone]
> 7.30	6.00 to 7.00	> 6.30	CC(=O)N1c2ccc(-c3cnn(CCS(C)(=O)=O)c3)c(OC3CCC3)c2CC[C@@H]1C [I-409]
> 7.30	6.00 to 7.00	> 6.30	CC(=O)N1c2ccc(-c3cnn(C(C)(C)CO)c3)c(Oc3ncc(F)cn3)c2CC[C@@H]1C [I-552]
≤ 6.30	≤ 5.00	< 6.00	CCCOc1c(C2CCN(CC)CC2)ccc2c1CC[C@H](C)N2C(C)=O [I-358, (S)-1-(6-(1-ethylpiperidin-4-yl)-2-methyl-5-propoxy-3,4-dihydroquinolin-1(2H)-yl)ethan-1-one]
6.30 to 7.30	6.00 to 7.00	> 6.30	COC(=O)N1c2ccc(-c3cnn(C4CC4)c3)c(Oc3ccc(C#N)cc3)c2CC[C@@H]1C [I-213, (S)-methyl 5-(4-cyanophenoxy)-6-(1-cyclopropyl-1H-pyrazol-4-yl)-2-methyl-3,4-dihydroquinoline-1(2H)-carboxylate]

SMILES	pIC50 [1]	pIC50 [2]	pIC50 [3]
C[C@H]1CCc2c(ccc(-c3cnn(C4CNC4)c3)c2OC2CCC2)N1C(=O)C1CC1 [I-101, (S)-(6-(1-(azetidin-3-yl)-1H-pyrazol-4-yl)-5-cyclobutoxy-2-methyl-3,4-dihydroquinolin-1(2H)-yl)(cyclopropyl)methanone]	> 7.30	6.00 to 7.00	> 6.30
